Laboratory results: the NIST ThermoML archive (doi:10.1016/j.jct.2006.07.025)
Numbers after ± are expanded uncertainties.

Experiment: xn = mol fraction of the nth substance listed
Conditions: for surface tension liquid-gas: Pendant drop shape; for mass density: 101 kPa, Liquid, Vibrating tube method

Cc1ccc(C)c(C)c1 [1,2,4-trimethylbenzene] + CCCCOC(C)=O
Conditions | mass density [kg/m3] | surface tension liquid-gas [mN/m]
298.15 K, x2 = 0 | 871.66 ± 0.19 | 29.17 ± 0.33
298.15 K, x2 = 0.0563 | 871.92 ± 0.19 | –
298.15 K, x2 = 0.0998 | – | 28.68 ± 0.32
298.15 K, x2 = 0.1045 | 872.14 ± 0.18 | –
298.15 K, x2 = 0.1496 | 872.35 ± 0.18 | –
298.15 K, x2 = 0.1996 | 872.58 ± 0.18 | –
298.15 K, x2 = 0.2001 | – | 28.2 ± 0.31
298.15 K, x2 = 0.2533 | 872.82 ± 0.17 | –
298.15 K, x2 = 0.2994 | – | 27.73 ± 0.31
298.15 K, x2 = 0.2998 | 873.03 ± 0.17 | –
298.15 K, x2 = 0.3552 | 873.27 ± 0.17 | –
298.15 K, x2 = 0.3998 | 873.46 ± 0.16 | –
298.15 K, x2 = 0.4003 | – | 27.25 ± 0.3
298.15 K, x2 = 0.45 | 873.68 ± 0.16 | –
298.15 K, x2 = 0.4958 | – | 26.78 ± 0.3
298.15 K, x2 = 0.5001 | 873.9 ± 0.16 | –
298.15 K, x2 = 0.5503 | 874.11 ± 0.16 | –
298.15 K, x2 = 0.5995 | 874.32 ± 0.15 | –
298.15 K, x2 = 0.6001 | – | 26.33 ± 0.29
298.15 K, x2 = 0.6495 | 874.54 ± 0.15 | –
298.15 K, x2 = 0.6998 | 874.75 ± 0.15 | –
298.15 K, x2 = 0.6999 | – | 25.93 ± 0.29
298.15 K, x2 = 0.7495 | 874.97 ± 0.15 | –
298.15 K, x2 = 0.7998 | – | 25.57 ± 0.28
298.15 K, x2 = 0.7999 | 875.2 ± 0.2 | –
298.15 K, x2 = 0.8499 | 875.43 ± 0.14 | –
298.15 K, x2 = 0.8989 | 875.67 ± 0.14 | –
298.15 K, x2 = 0.8997 | – | 25.23 ± 0.28
298.15 K, x2 = 0.9478 | 875.91 ± 0.14 | –
303.15 K, x2 = 0 | 867.61 ± 0.19 | 28.67 ± 0.32
303.15 K, x2 = 0.1001 | 867.99 ± 0.18 | 28.18 ± 0.31
303.15 K, x2 = 0.2009 | 868.38 ± 0.18 | 27.69 ± 0.31
303.15 K, x2 = 0.3006 | 868.73 ± 0.17 | 27.22 ± 0.3
303.15 K, x2 = 0.4001 | 869.1 ± 0.17 | 26.73 ± 0.3
303.15 K, x2 = 0.5004 | 869.45 ± 0.16 | 26.27 ± 0.29
303.15 K, x2 = 0.6006 | 869.81 ± 0.16 | 25.8 ± 0.29
303.15 K, x2 = 0.7001 | 870.15 ± 0.15 | 25.4 ± 0.28
303.15 K, x2 = 0.7997 | 870.43 ± 0.15 | 25.03 ± 0.28
303.15 K, x2 = 0.9 | 870.91 ± 0.14 | 24.7 ± 0.27
308.15 K, x2 = 0 | 863.59 ± 0.19 | 28.17 ± 0.32
308.15 K, x2 = 0.1005 | 863.87 ± 0.18 | 27.67 ± 0.31
308.15 K, x2 = 0.1998 | 864.16 ± 0.18 | 27.18 ± 0.3
308.15 K, x2 = 0.3004 | 864.42 ± 0.17 | 26.7 ± 0.3
308.15 K, x2 = 0.4003 | 864.67 ± 0.17 | 26.21 ± 0.29
308.15 K, x2 = 0.5007 | 864.93 ± 0.16 | 25.75 ± 0.29
308.15 K, x2 = 0.5991 | 865.17 ± 0.16 | 25.28 ± 0.28
308.15 K, x2 = 0.6995 | 865.43 ± 0.15 | 24.87 ± 0.28
308.15 K, x2 = 0.7999 | 865.68 ± 0.15 | 24.5 ± 0.27
308.15 K, x2 = 0.9004 | 865.94 ± 0.14 | 24.16 ± 0.27
313.15 K, x2 = 0 | 859.54 ± 0.19 | 27.67 ± 0.31
313.15 K, x2 = 0.0499 | 859.66 ± 0.19 | –
313.15 K, x2 = 0.1002 | 859.76 ± 0.19 | 27.12 ± 0.31
313.15 K, x2 = 0.1503 | 859.87 ± 0.18 | –
313.15 K, x2 = 0.1995 | 859.98 ± 0.18 | 26.55 ± 0.3
313.15 K, x2 = 0.25 | 860.08 ± 0.18 | –
313.15 K, x2 = 0.3 | 860.19 ± 0.17 | 26.02 ± 0.29
313.15 K, x2 = 0.35 | 860.28 ± 0.17 | –
313.15 K, x2 = 0.3996 | 860.37 ± 0.17 | 25.48 ± 0.29
313.15 K, x2 = 0.4499 | 860.46 ± 0.16 | –
313.15 K, x2 = 0.5002 | 860.56 ± 0.16 | 24.99 ± 0.28
313.15 K, x2 = 0.5499 | 860.65 ± 0.16 | –
313.15 K, x2 = 0.5998 | 860.73 ± 0.16 | 24.55 ± 0.28
313.15 K, x2 = 0.6503 | 860.82 ± 0.15 | –
313.15 K, x2 = 0.6999 | 860.91 ± 0.15 | 24.2 ± 0.27
313.15 K, x2 = 0.7499 | 861.01 ± 0.15 | –
313.15 K, x2 = 0.8004 | 861.1 ± 0.15 | 23.9 ± 0.27
313.15 K, x2 = 0.85 | 861.21 ± 0.15 | –
313.15 K, x2 = 0.9005 | 861.33 ± 0.15 | 23.62 ± 0.27
313.15 K, x2 = 0.9496 | 861.45 ± 0.14 | –

Cc1ccc(C)c(C)c1 [1,2,4-trimethylbenzene] + CCCOC(C)=O
Conditions | mass density [kg/m3] | surface tension liquid-gas [mN/m]
298.15 K, x2 = 0 | 871.66 ± 0.19 | 29.17 ± 0.33
298.15 K, x2 = 0.0607 | 872.13 ± 0.19 | –
298.15 K, x2 = 0.1002 | 872.45 ± 0.19 | 28.61 ± 0.32
298.15 K, x2 = 0.1578 | 872.95 ± 0.18 | –
298.15 K, x2 = 0.2008 | 873.32 ± 0.18 | 28.06 ± 0.31
298.15 K, x2 = 0.2518 | 873.78 ± 0.18 | –
298.15 K, x2 = 0.302 | 874.24 ± 0.17 | 27.51 ± 0.31
298.15 K, x2 = 0.3504 | 874.71 ± 0.17 | –
298.15 K, x2 = 0.4003 | 875.2 ± 0.17 | 26.97 ± 0.3
298.15 K, x2 = 0.4568 | 875.78 ± 0.17 | –
298.15 K, x2 = 0.4993 | 876.23 ± 0.17 | 26.44 ± 0.3
298.15 K, x2 = 0.549 | 876.77 ± 0.16 | –
298.15 K, x2 = 0.6006 | 877.36 ± 0.16 | 25.93 ± 0.29
298.15 K, x2 = 0.6494 | 877.93 ± 0.16 | –
298.15 K, x2 = 0.7006 | 878.55 ± 0.16 | 25.44 ± 0.28
298.15 K, x2 = 0.7493 | 879.16 ± 0.16 | –
298.15 K, x2 = 0.7991 | 879.8 ± 0.15 | 24.96 ± 0.28
298.15 K, x2 = 0.8497 | 880.49 ± 0.15 | –
298.15 K, x2 = 0.8991 | 881.17 ± 0.15 | 24.48 ± 0.27
298.15 K, x2 = 0.9464 | 881.86 ± 0.15 | –
303.15 K, x2 = 0 | 867.61 ± 0.19 | 28.67 ± 0.32
303.15 K, x2 = 0.0982 | 868.25 ± 0.19 | 28.09 ± 0.31
303.15 K, x2 = 0.1994 | 868.98 ± 0.18 | 27.53 ± 0.31
303.15 K, x2 = 0.3006 | 869.76 ± 0.18 | 26.96 ± 0.3
303.15 K, x2 = 0.3996 | 870.56 ± 0.17 | 26.4 ± 0.3
303.15 K, x2 = 0.503 | 871.46 ± 0.17 | 25.86 ± 0.29
303.15 K, x2 = 0.6003 | 872.41 ± 0.16 | 25.34 ± 0.28
303.15 K, x2 = 0.6979 | 873.41 ± 0.16 | 24.83 ± 0.28
303.15 K, x2 = 0.7993 | 874.52 ± 0.15 | 24.34 ± 0.27
303.15 K, x2 = 0.8992 | 875.72 ± 0.15 | 23.86 ± 0.27
308.15 K, x2 = 0 | 863.59 ± 0.19 | 28.17 ± 0.32
308.15 K, x2 = 0.0986 | 864.07 ± 0.19 | 27.57 ± 0.31
308.15 K, x2 = 0.1998 | 864.65 ± 0.18 | 26.99 ± 0.3
308.15 K, x2 = 0.3028 | 865.29 ± 0.18 | 26.41 ± 0.3
308.15 K, x2 = 0.4004 | 865.93 ± 0.17 | 25.83 ± 0.29
308.15 K, x2 = 0.5036 | 866.67 ± 0.17 | 25.27 ± 0.29
308.15 K, x2 = 0.6003 | 867.44 ± 0.16 | 24.74 ± 0.28
308.15 K, x2 = 0.6977 | 868.27 ± 0.16 | 24.22 ± 0.27
308.15 K, x2 = 0.8 | 869.22 ± 0.16 | 23.72 ± 0.27
308.15 K, x2 = 0.9005 | 870.23 ± 0.15 | 23.23 ± 0.26
313.15 K, x2 = 0 | 859.54 ± 0.19 | 27.67 ± 0.31
313.15 K, x2 = 0.0497 | 859.64 ± 0.19 | –
313.15 K, x2 = 0.0998 | 859.82 ± 0.19 | –
313.15 K, x2 = 0.1005 | – | 27.05 ± 0.31
313.15 K, x2 = 0.15 | 860.01 ± 0.18 | –
313.15 K, x2 = 0.2001 | 860.24 ± 0.18 | 26.46 ± 0.3
313.15 K, x2 = 0.2498 | 860.45 ± 0.18 | –
313.15 K, x2 = 0.2999 | 860.71 ± 0.18 | 25.86 ± 0.29
313.15 K, x2 = 0.35 | 860.98 ± 0.17 | –
313.15 K, x2 = 0.4001 | 861.25 ± 0.17 | 25.26 ± 0.29
313.15 K, x2 = 0.4503 | 861.53 ± 0.17 | –
313.15 K, x2 = 0.4997 | 861.83 ± 0.17 | –
313.15 K, x2 = 0.4998 | – | 24.69 ± 0.28
313.15 K, x2 = 0.5502 | 862.15 ± 0.17 | –
313.15 K, x2 = 0.6001 | 862.48 ± 0.16 | 24.15 ± 0.27
313.15 K, x2 = 0.6499 | 862.81 ± 0.16 | –
313.15 K, x2 = 0.7 | 863.18 ± 0.16 | –
313.15 K, x2 = 0.7002 | – | 23.61 ± 0.27
313.15 K, x2 = 0.7503 | 863.54 ± 0.16 | –
313.15 K, x2 = 0.7998 | 863.94 ± 0.16 | 23.1 ± 0.26
313.15 K, x2 = 0.85 | 864.35 ± 0.15 | –
313.15 K, x2 = 0.9002 | 864.79 ± 0.15 | 22.61 ± 0.26
313.15 K, x2 = 0.9495 | 865.18 ± 0.15 | –
